Reference: ChEMBL document CHEMBL4665701, “Discovery and Characterization of Clinical Candidate LXE408 as a Kinetoplastid-Selective Proteasome Inhibitor for the Treatment of Leishmaniases” (J Med Chem, 2020)
Blank lines part the entries; values can stand above or below the compound they belong to. Activity calls are given as the source filed them. The calls are words filed in the database; no cut-off is given here.

Key:
[1] = in vitro; conditions: rat, liver microsomes
[2] = Drug level in mouse hepatocytes assessed as compound abundance level at 10 uM incubated for 4 hrs by UV chromatography; assay type: ADME, cell-based, Hepatocyte
[3] = Drug level in rat hepatocytes assessed as compound abundance level at 10 uM incubated for 4 hrs by UV chromatography; assay type: ADME, cell-based, Hepatocyte
[4] = Drug level in dog hepatocytes assessed as compound abundance level at 10 uM incubated for 4 hrs by UV chromatography; assay type: ADME, cell-based, Canis lupus familiaris, Hepatocyte
[5] = Drug level in monkey hepatocytes assessed as compound abundance level at 10 uM incubated for 4 hrs by UV chromatography; assay type: ADME, cell-based, Macaca mulatta, Hepatocyte; conditions: rhesus monkey
[6] = Drug level in human hepatocytes assessed as compound abundance level at 10 uM incubated for 4 hrs by UV chromatography; assay type: ADME, cell-based, Hepatocyte
[7] = Drug uptake in beagle dog at 10 mg/kg, po measured up to 24 hrs relative to LXE408; assay type: ADME, organism-based, Canis lupus familiaris; conditions: in vivo
[8] = biological target: T1, Cytochrome P450 2J2 (Homo sapiens, UniProt P51589); assay: Drug metabolism assessed as human CYP2j2-mediated N-(4-fluoro-3-(6-(3-methylpyri din-2-yl)-[1,2,4]triazolo[1,5- a]pyrimidin-2-yl)phenyl)-2-(hy droxymethyl)-4-methyloxazole-5 -carboxamide formation; assay type: ADME; conditions: recombinant enzyme
T1 sequence (P51589 whole entry): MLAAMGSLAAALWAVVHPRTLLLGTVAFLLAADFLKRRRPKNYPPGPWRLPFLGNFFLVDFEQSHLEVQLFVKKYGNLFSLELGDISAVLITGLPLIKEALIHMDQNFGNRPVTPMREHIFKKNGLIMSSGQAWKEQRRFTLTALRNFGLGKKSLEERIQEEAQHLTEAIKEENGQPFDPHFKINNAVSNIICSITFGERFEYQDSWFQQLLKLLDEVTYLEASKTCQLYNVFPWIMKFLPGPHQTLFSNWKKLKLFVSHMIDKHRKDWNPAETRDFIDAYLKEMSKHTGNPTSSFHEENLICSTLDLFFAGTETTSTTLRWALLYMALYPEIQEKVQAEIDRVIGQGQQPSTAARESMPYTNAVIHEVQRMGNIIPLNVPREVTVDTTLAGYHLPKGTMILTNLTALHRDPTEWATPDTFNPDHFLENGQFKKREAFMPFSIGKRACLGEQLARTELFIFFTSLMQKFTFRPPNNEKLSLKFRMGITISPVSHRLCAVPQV

[9] = biological target: T2, Cytochrome P450 1A2 (Homo sapiens, UniProt P05177); assay: Drug metabolism assessed as human CYP1A2-mediated N-(4-fluoro-3-(6-(3-methylpyri din-2-yl)-[1,2,4]triazolo[1,5- a]pyrimidin-2-yl)phenyl)-2-(hy droxymethyl)-4-methyloxazole-5 -carboxamide formation; assay type: ADME; conditions: recombinant enzyme
T2 sequence (P05177 whole entry): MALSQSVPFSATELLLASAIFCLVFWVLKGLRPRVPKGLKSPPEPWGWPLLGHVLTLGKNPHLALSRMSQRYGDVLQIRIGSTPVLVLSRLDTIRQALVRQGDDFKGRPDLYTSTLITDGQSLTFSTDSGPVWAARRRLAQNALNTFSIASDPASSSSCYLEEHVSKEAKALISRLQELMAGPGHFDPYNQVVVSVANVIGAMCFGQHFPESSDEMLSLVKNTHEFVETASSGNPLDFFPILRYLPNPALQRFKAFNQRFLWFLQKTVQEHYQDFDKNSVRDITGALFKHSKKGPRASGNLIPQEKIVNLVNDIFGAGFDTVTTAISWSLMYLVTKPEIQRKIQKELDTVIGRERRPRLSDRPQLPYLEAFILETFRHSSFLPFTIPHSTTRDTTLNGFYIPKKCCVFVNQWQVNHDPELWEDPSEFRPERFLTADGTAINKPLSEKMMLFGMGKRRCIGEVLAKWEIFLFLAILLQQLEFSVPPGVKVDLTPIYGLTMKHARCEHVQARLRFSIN

[10] = biological target: T3, Cytochrome P450 1A1 (Homo sapiens, UniProt P04798); assay: Drug metabolism assessed as human CYP1A1-mediated N-(4-fluoro-3-(6-(3-methylpyri din-2-yl)-[1,2,4]triazolo[1,5- a]pyrimidin-2-yl)phenyl)-2-(hy droxymethyl)-4-methyloxazole-5 -carboxamide formation; assay type: ADME; conditions: recombinant enzyme
T3 sequence (P04798 whole entry): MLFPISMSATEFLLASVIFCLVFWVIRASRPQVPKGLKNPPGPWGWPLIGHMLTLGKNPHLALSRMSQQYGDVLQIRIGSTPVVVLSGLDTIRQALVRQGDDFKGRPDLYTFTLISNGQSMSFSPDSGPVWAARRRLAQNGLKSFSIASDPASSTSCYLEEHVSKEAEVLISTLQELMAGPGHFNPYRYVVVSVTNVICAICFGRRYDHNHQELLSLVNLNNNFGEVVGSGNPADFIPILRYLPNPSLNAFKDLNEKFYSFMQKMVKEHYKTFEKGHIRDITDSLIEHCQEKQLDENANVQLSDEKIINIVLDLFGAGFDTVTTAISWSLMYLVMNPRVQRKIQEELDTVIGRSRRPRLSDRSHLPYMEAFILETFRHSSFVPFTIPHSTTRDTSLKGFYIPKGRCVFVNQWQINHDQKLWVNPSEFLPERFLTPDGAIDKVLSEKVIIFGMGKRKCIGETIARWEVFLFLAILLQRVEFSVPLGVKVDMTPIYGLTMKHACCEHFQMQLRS

[11] = biological target: T4, Cytochrome P450 2D15 (Canis lupus familiaris, UniProt Q29473); assay: Drug metabolism assessed as dog CYP2D15-mediated N-(4-fluoro-3-(6-(3-methylpyri din-2-yl)-[1,2,4]triazolo[1,5- a]pyrimidin-2-yl)phenyl)-2-(hy droxymethyl)-4-methyloxazole-5 -carboxamide formation; assay type: ADME; conditions: recombinant enzyme
T4 sequence (Q29473 whole entry): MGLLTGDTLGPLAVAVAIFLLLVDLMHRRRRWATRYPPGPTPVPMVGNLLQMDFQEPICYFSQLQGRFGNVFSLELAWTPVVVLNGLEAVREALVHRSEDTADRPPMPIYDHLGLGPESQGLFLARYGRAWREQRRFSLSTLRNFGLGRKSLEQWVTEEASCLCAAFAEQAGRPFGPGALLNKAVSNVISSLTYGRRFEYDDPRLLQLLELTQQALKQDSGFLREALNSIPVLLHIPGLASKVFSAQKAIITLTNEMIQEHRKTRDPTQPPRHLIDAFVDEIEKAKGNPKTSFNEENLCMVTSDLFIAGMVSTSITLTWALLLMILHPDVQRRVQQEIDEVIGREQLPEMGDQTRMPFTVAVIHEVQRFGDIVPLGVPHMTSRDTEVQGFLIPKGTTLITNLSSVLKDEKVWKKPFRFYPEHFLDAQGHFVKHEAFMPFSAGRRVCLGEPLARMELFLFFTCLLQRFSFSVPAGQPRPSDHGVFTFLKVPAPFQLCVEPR

[12] = biological target: Cytochrome P450 3A4 (Homo sapiens, UniProt P08684); assay: Drug metabolism assessed as human CYP3A4-mediated N-(4-fluoro-3-(6-(3-methylpyri din-2-yl)-[1,2,4]triazolo[1,5- a]pyrimidin-2-yl)phenyl)-2-(hy droxymethyl)-4-methyloxazole-5 -carboxamide formation; assay type: ADME; conditions: recombinant enzyme
[13] = Toxicity in rat by vivo micronucleus test
[14] = Genotoxicity in Salmonella typhimurium by Ames test; assay type: toxicity; conditions: salmonella enterica subsp. enterica serovar typhimurium
[15] = system: Leishmania major; assay: Antiparasitic activity against Leishmania major MHOM/IR/-/173 promastigotes infected in BALB/c mouse model of cutaneous leishmaniasis assessed as healing of parasite-induced skin lesions at 20 mg/kg, po BID for 10 days; assay type: functional, organism-based; conditions: time 10.0 day
[16] = system: Leishmania donovani; assay: Antiparasitic activity against Leishmania donovani MHOM/ET/67/HU3 (ATCC) infected in BALB/c mouse model of visceral leishmaniasis assessed as parasite burden in liver at 0.3 mg/kg, po BID for 8 days by qPCR analysis (reference value: 100%); assay type: functional; conditions: time 8 day
[17] = system: Leishmania donovani; assay: Antiparasitic activity against Leishmania donovani MHOM/ET/67/HU3 (ATCC) infected in BALB/c mouse model of visceral leishmaniasis assessed as parasite burden in liver at 1 mg/kg, po BID for 8 days by qPCR analysis (reference value: 100%); assay type: functional; conditions: time 8 day
[18] = system: Leishmania donovani; assay: Antiparasitic activity against Leishmania donovani MHOM/ET/67/HU3 (ATCC) infected in BALB/c mouse model of visceral leishmaniasis assessed as parasite burden in liver at 3 mg/kg, po BID for 8 days by qPCR analysis (reference value: 100%); assay type: functional; conditions: time 8 day
[19] = system: Leishmania donovani; assay: Antiparasitic activity against Leishmania donovani MHOM/ET/67/HU3 (ATCC) infected in BALB/c mouse model of visceral leishmaniasis assessed as parasite burden in liver at 10 mg/kg, po BID for 8 days by qPCR analysis (reference value: 100%); assay type: functional; conditions: time 8 day
[20] = Drug concentration in plasma of Leishmania donovani MHOM/ET/67/HU3 (ATCC) infected BALB/c mouse model of visceral leishmaniasis at 0.3 to 10 mg/kg, po BID for 8 days; assay type: ADME, organism-based; conditions: in vivo, 192 h, dose 0.3-10 mg/kg, time 8 day
[21] = Inhibition of chymotrypsin-like activity of Leishmania tarentolae proteasome beta 5 Y113F mutant
[22] = in vitro; conditions: rat, liver microsomes; remark: listed apart in the source
[23] = in vitro; conditions: mouse, liver microsomes
[24] = in vitro; conditions: rat, liver microsomes; remark: listed apart in the source
[25] = system: Leishmania donovani; assay: Antiparasitic activity against Leishmania donovani MHOM/ET/67/HU3 (ATCC) infected in primary BALB/c mouse peritoneal macrophages assessed as reduction in parasite proliferation incubated for 120 hrs by SYBR Green I staining based assay; assay type: functional, organism-based; conditions: Macrophage
[26] = system: Leishmania tarentolae; assay: Noncompetitive inhibition of chymotrypsin-like activity of Leishmania tarentolae proteasome beta 5 using fluorogenic peptide Suc-LLVY-[Rh110]-[Dpro] as substrate
[27] = system: Leishmania donovani; assay: Antiparasitic activity against Leishmania donovani MHOM/ET/67/HU3 (ATCC) infected in BALB/c mouse model of visceral leishmaniasis assessed as reduction in parasite burden in liver at 12 mg/kg, po QD for 8 days by qPCR analysis relative to control; assay type: functional, organism-based; conditions: time 8.0 day
[28] = system: Leishmania donovani; assay: Antiparasitic activity against Leishmania donovani MHOM/ET/67/HU3 (ATCC) infected in BALB/c mouse model of visceral leishmaniasis assessed as parasite burden in liver at 12 mg/kg, po QD for 8 days by qPCR analysis (reference value: 100%); assay type: functional; conditions: time 8 day
[29] = system: Leishmania tarentolae; assay: Inhibition of chymotrypsin-like activity of Leishmania tarentolae proteasome beta 4 F24L mutant
[30] = system: Leishmania tarentolae; assay: Inhibition of chymotrypsin-like activity of Leishmania tarentolae proteasome beta 4

Chain of Cytochrome P450 3A4 (P08684 whole entry): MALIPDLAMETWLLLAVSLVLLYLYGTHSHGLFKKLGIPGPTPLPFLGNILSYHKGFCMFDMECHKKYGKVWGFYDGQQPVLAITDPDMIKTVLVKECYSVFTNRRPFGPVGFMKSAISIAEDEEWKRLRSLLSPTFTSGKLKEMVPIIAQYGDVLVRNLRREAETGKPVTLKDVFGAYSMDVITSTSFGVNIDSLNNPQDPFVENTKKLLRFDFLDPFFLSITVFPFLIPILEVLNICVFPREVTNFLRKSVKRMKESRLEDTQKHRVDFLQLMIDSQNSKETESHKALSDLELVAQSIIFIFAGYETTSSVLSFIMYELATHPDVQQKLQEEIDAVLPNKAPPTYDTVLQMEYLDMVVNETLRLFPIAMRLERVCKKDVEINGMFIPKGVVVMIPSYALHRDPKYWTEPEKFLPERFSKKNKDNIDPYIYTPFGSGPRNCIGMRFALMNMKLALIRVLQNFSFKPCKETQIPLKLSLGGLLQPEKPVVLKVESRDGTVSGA

SMILES: Cc1nc(C)c(C(=O)Nc2ccc(F)c(-c3nc4ncc(-c5ncccc5C(F)F)cn4n3)c2)o1
- hepatic extraction ratio at 1 h [1]: < 0.18

SMILES: Cc1nc(C)c(C(=O)Nc2ccc(F)c(-c3nc4ncc(-c5ncccc5C)cn4n3)c2)o1 [LXE-408]
- Drug metabolism [8]: Metabolite_Detected
- Drug metabolism [9]: Metabolite_Detected
- Drug metabolism [10]: Metabolite_Detected
- Drug uptake [2]: > 75%
- Drug uptake [3]: > 75%
- Drug uptake [4]: > 75%
- Drug uptake [5]: > 75%
- Drug uptake [6]: > 75%
- Drug metabolism [11]: Metabolite_Detected
- Drug metabolism [12]: Metabolite_Detected
- Activity [13]: Non-Toxic
- Activity [14]: Non-Toxic
- Activity [15]: Active
- Activity [16]: 85%
- Activity [17]: 5.1%
- Activity [18]: <0.2%
- Activity [19]: <0.16%
- Drug uptake [20]: Dose-dependent effect
- inhibition [21]: inactive

SMILES: COc1cccnc1-c1cnc2nc(-c3cc(NC(=O)c4oc(C)nc4C)ccc3F)nn2c1
- hepatic extraction ratio at 1 h [22]: < 0.21

SMILES: Cc1nc(C)c(C(=O)Nc2ccc(F)c(-c3nc4ncc(-c5ccccn5)cn4n3)c2)o1
- inhibition [26]: Active

SMILES: CCCCCCCCCCCCCCCCOP(=O)([O-])OCC[N+](C)(C)C [MILTEFOSINE]
- Activity [27]: Active
- Activity [28]: 4.2%

SMILES: CC(C)C[C@H](NC(=O)[C@H](Cc1ccccc1)NC(=O)c1cnccn1)B(O)O
- inhibition [29]: Active
- inhibition [30]: Active

Second part, led by results:

- Drug uptake [2]: <= 25%
- Drug uptake [3]: <= 25%
- Drug uptake [4]: <= 25%
- Drug uptake [5]: <= 25%
- Drug uptake [6]: <= 25%
- Drug uptake [7]: 9.1%
SMILES: Cc1nc(C)c(C(=O)Nc2ccc(F)c(-c3nc4ncc(-c5ncccc5CO)cn4n3)c2)o1

- hepatic extraction ratio at 1 h [23]: < 0.21
- hepatic extraction ratio at 1 h [24]: < 0.21
- hepatic extraction ratio at 1 h [22]: 0.21
SMILES: Cc1nc(C)c(C(=O)Nc2ccc(F)c(-c3nc4ncc(-c5ncccc5Cl)cn4n3)c2)o1

- Drug uptake [2]: <= 25%
- Drug uptake [3]: <= 25%
- Drug uptake [4]: <= 25%
- Drug uptake [5]: <= 25%
- Drug uptake [6]: <= 25%
- Drug uptake [7]: 2.3%
SMILES: Cc1nc(CO)c(C(=O)Nc2ccc(F)c(-c3nc4ncc(-c5ncccc5C)cn4n3)c2)o1
- EC50 [25]: > 5 µM

- Drug uptake [3]: <= 25%
- Drug uptake [4]: 25%
- Drug uptake [5]: <= 25%
- Drug uptake [6]: <= 25%
SMILES: Cc1cccnc1-c1cnc2nc(-c3cc(NC(=O)c4oc(CO)nc4C)ccc3F)nn2c1
- EC50 [25]: > 5 µM
